# ChEMBL document CHEMBL1129712, “Synthesis and biological activities of camphor-based non-peptide growth hormone secretagogues” (Bioorg Med Chem Lett, 1996)
# Species on record: Rattus norvegicus
# Assay: Evaluated for intrinsic GH secretory potency as half maximal release of GH in the rat pituitary cell assay.
# Type: functional
# Settings: Pituitary gland cell
row,SMILES,EC50 [µM]
1,CC1(C)C2CCC1(CS(=O)(=O)N1CCC3(CCc4ccccc43)CC1)C(NC(=O)[C@@H]1CCCN(C[C@H](O)CO)C1)C2 (stereo not given in full),0.8
2,Cc1ccccc1N1CCN(S(=O)(=O)CC23CCC(CC2NC(=O)CC(C)(C)N)C3(C)C)CC1 (stereo not given),> 10
3,CC(C)(C)OC(=O)N1CCCC(C(=O)NC2CC3CCC2(CS(=O)(=O)N2CCC4(CCc5ccccc54)CC2)C3(C)C)C1 (stereo not given),> 25
4,Cc1ccccc1N1CCN(S(=O)(=O)CC23CCC(CC2NC(=O)[C@H]2CCCNC2)C3(C)C)CC1 (stereo not given in full),> 5
5,CC(C)(N)C(=O)NC1CC2CCC1(CS(=O)(=O)N1CCC3(CCc4ccccc43)CC1)C2(C)C (stereo not given),> 10
6,CC(C)(N)CC(=O)NC1CC2CCC1(CS(=O)(=O)N1CCC3(CCc4ccccc43)CC1)C2(C)C (stereo not given),> 10
7,Cc1ccccc1N1CCN(S(=O)(=O)CC23CCC(CC2NC(=O)[C@@H]2CCCNC2)C3(C)C)CC1 (stereo not given in full),0.135
8,CC1(C)C2CCC1(CS(=O)(=O)N1CCC3(CCc4ccccc43)CC1)C(NC(=O)C1CN3CCC1CC3)C2 (stereo not given),> 10

# Now from value to molecule:
row,EC50 [µM],SMILES
1,9.5,CC1(C)C2CCC1(CS(=O)(=O)N1CCC3(CCc4ccccc43)CC1)C(NC(=O)C1CCNCC1)C2 (stereo not given)
2,0.3,CC1(C)C2CCC1(CS(=O)(=O)N1CCC3(CCc4ccccc43)CC1)C(NC(=O)C1CCCN(CCO)C1)C2 (stereo not given)
3,0.09,C[C@@H](O)CN1CCC[C@@H](C(=O)NC2CC3CCC2(CS(=O)(=O)N2CCC4(CCc5ccccc54)CC2)C3(C)C)C1 (stereo not given in full)
4,0.3,CC1(C)C2CCC1(CS(=O)(=O)N1CCC3(CCc4ccccc43)CC1)C(NC(=O)C1CCCNC1)C2 [L-368112]
5,> 10,CC1(C)C2CCC1(CS(=O)(=O)N1CCC3(CCc4ccccc43)CC1)C(NC(=O)C1CCCCN1)C2 (stereo not given)
6,> 1,CC1(C)C2CCC1(CS(=O)(=O)N1CCC3(CCc4ccccc43)CC1)C(NC(=O)[C@H]1CCCNC1)C2 (stereo not given in full)
7,0.14,CC1(C)C2CCC1(CS(=O)(=O)N1CCC3(CCc4ccccc43)CC1)C(NC(=O)[C@@H]1CCCNC1)C2 (stereo partly drawn) [L-162425]
